Assay results: doi:10.1101/2021.04.08.439011v1 (biorxiv, 2021)
Like-named read-outs stand apart in the source and are kept apart here.

Key:
AAK1 = AAK1 (Homo sapiens, UniProt Q2M2I8); details: 1 µM; binder
ABL1(Q252H) = ABL1(Q252H) (Homo sapiens, UniProt P00519, Q252H); details: 1 µM, binder
ALK = ALK (Homo sapiens, UniProt Q9UM73); details: 1 µM; binder
ARK5 = ARK5 (Homo sapiens, UniProt O60285); details: 1 µM; binder
BMPR1B = BMPR1B (Homo sapiens, UniProt O00238); details: 1 µM; binder
CAMKK2 = CAMKK2 (Homo sapiens, UniProt Q96RR4); details: 1 µM; binder
CDC2L2 = CDC2L2 (Homo sapiens, UniProt Q9UQ88); details: 1 µM; binder
CDK8 = CDK8 (Homo sapiens, UniProt P49336); details: 1 µM; binder
DRAK1 = DRAK1 (Homo sapiens, UniProt Q9UEE5); details: 1 µM; binder
EGFR(T790M) = EGFR(T790M) (Homo sapiens, UniProt P00533, T790M); details: 1 µM; binder
EIF2AK1 = EIF2AK1 (Homo sapiens, UniProt Q9BQI3); details: 1 µM; binder
Chain of EIF2AK1 (Q9BQI3 whole entry): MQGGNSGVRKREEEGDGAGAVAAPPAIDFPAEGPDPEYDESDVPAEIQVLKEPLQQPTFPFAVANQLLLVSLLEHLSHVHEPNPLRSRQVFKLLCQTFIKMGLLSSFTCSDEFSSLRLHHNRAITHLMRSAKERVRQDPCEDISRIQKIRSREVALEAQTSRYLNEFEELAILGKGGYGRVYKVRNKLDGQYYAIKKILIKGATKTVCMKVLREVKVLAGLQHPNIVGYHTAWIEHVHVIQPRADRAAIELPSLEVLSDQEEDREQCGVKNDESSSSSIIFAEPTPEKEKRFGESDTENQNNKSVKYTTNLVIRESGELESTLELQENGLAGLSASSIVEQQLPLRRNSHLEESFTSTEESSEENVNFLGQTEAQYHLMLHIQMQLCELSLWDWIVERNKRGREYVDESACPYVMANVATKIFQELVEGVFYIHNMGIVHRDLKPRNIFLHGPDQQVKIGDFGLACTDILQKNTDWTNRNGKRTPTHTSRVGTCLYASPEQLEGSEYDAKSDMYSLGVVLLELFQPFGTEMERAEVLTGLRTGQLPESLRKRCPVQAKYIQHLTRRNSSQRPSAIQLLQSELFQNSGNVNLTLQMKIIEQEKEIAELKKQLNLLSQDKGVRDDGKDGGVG

FGFR4 = FGFR4 (Homo sapiens, UniProt P22455); details: 1 µM; binder
INSR = INSR (Homo sapiens, UniProt P06213); details: 1 µM; binder
KIT(V559D) = KIT(V559D) (Homo sapiens, UniProt P10721, V559D); details: 1 µM; binder
KIT(V559D,T670I) = KIT(V559D,T670I) (Homo sapiens, UniProt P10721, T670I/V559D); details: 1 µM; binder
LATS2 = LATS2 (Homo sapiens, UniProt Q9NRM7); details: 1 µM; binder
Chain of LATS2 (Q9NRM7 whole entry): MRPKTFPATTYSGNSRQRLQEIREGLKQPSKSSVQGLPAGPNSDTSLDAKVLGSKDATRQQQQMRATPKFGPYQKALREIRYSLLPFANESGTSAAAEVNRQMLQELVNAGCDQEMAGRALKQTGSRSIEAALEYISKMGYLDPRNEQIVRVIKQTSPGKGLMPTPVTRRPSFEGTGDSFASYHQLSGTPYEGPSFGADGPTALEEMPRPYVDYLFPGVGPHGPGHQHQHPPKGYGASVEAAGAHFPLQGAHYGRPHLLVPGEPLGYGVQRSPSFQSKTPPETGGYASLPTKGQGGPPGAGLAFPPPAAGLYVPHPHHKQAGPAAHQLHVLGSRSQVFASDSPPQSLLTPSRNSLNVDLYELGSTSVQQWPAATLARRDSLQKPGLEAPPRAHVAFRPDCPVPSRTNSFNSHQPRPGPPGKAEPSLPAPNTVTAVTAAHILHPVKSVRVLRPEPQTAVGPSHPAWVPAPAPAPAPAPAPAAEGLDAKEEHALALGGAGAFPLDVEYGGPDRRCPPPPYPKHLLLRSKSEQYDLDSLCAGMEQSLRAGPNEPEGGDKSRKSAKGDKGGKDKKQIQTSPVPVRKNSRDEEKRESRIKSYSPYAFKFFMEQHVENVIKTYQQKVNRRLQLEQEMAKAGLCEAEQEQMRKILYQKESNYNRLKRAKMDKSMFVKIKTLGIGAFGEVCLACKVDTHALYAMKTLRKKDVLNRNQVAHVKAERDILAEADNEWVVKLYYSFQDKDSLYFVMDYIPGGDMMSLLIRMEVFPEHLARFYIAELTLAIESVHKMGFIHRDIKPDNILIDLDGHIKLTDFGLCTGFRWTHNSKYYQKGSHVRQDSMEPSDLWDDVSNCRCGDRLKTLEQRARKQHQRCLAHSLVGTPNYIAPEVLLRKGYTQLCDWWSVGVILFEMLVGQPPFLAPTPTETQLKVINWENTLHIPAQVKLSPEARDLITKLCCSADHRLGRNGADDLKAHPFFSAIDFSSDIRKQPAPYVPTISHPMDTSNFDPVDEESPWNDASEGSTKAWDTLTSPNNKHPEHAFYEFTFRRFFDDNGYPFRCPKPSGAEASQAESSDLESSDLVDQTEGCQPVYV

MARK1 = MARK1 (Homo sapiens, UniProt Q9P0L2); details: 1 µM; binder
Chain of MARK1 (Q9P0L2 whole entry): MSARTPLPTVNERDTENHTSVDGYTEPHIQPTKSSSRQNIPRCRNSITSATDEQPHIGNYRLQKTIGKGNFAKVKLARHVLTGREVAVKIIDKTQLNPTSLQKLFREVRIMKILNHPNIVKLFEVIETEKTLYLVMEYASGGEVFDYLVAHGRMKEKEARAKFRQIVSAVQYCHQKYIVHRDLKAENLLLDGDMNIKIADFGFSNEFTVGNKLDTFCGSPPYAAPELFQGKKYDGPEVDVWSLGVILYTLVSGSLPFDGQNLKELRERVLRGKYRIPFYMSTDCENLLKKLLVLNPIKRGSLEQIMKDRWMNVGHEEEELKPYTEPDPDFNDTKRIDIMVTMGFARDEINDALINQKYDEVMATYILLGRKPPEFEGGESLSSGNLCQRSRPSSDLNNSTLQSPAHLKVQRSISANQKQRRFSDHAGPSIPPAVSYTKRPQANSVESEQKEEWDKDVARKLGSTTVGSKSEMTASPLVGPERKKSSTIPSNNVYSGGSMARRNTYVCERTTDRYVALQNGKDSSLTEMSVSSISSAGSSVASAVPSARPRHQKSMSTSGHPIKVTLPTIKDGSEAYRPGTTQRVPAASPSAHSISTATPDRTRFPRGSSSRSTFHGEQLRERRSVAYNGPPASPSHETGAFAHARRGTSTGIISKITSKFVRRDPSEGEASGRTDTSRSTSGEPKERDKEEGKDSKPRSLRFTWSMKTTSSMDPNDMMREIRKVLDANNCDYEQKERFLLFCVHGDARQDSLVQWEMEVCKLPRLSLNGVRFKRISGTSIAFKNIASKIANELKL

MRCKB = MRCKB (Homo sapiens, UniProt Q9Y5S2); details: 1 µM; binder
Chain of MRCKB (Q9Y5S2 whole entry): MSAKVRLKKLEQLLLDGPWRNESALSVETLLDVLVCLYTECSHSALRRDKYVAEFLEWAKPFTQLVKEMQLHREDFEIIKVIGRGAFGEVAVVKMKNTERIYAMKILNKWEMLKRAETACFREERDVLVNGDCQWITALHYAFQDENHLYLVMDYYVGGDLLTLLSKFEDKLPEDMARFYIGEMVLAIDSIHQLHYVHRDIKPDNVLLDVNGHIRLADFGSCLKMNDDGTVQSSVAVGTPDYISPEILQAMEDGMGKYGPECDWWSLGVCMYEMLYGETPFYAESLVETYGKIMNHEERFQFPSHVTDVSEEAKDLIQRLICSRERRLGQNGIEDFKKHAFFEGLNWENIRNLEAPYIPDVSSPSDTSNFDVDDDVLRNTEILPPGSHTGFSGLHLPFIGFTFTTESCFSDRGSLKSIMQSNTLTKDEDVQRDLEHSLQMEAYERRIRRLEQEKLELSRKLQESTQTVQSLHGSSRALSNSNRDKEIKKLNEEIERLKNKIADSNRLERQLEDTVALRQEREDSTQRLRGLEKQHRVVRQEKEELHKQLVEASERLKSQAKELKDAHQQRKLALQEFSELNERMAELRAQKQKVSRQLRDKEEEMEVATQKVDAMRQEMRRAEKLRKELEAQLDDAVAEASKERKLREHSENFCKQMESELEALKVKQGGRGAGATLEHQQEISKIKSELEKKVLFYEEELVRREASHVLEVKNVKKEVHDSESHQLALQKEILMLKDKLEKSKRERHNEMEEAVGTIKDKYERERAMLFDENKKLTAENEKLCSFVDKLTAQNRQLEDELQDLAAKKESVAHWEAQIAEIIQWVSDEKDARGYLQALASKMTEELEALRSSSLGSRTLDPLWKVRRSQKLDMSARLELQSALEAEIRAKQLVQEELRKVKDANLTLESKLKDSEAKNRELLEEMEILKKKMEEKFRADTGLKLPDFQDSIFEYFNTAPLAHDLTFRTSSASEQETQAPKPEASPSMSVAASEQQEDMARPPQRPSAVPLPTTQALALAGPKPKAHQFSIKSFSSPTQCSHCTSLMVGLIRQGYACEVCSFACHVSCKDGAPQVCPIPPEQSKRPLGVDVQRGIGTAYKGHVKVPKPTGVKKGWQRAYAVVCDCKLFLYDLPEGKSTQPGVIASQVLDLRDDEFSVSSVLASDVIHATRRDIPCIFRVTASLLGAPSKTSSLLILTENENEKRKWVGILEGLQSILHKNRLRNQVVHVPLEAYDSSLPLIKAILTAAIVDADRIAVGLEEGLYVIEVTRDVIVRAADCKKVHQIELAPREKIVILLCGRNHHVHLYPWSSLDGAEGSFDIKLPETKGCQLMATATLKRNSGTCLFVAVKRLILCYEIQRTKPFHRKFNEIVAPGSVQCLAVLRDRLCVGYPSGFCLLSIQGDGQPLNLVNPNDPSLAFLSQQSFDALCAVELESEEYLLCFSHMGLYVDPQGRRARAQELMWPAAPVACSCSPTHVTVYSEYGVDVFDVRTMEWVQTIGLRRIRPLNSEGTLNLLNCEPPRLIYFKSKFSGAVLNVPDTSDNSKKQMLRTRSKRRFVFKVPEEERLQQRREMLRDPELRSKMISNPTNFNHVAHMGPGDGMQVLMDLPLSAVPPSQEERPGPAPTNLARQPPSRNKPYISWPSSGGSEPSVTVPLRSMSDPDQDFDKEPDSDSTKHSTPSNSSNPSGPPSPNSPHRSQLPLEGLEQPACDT

MTOR = MTOR (Homo sapiens, UniProt P42345); details: 1 µM; binder
MYLK2 = MYLK2 (Homo sapiens, UniProt Q9H1R3); details: 1 µM; binder
NEK4 = NEK4 (Homo sapiens, UniProt P51957); details: 1 µM; binder
PAK3 = PAK3 (Homo sapiens, UniProt O75914); details: 1 µM; binder
PDGFRB = PDGFRB (Homo sapiens, UniProt P09619); details: 1 µM; binder
PIK3CA(Q546K) = PIK3CA(Q546K) (Homo sapiens, UniProt P42336, Q546K); details: 1 µM; binder
PIKFYVE = PIKFYVE (Homo sapiens, UniProt Q9Y2I7); details: 1 µM; binder
PIP5K1C = PIP5K1C (Homo sapiens, UniProt O60331); details: 1 µM; binder
PRKD1 = PRKD1 (Homo sapiens, UniProt Q15139); details: 1 µM; binder
SIK1 = SIK1 (Homo sapiens, UniProt P57059); details: 1 µM; binder
Chain of SIK1 (P57059 whole entry): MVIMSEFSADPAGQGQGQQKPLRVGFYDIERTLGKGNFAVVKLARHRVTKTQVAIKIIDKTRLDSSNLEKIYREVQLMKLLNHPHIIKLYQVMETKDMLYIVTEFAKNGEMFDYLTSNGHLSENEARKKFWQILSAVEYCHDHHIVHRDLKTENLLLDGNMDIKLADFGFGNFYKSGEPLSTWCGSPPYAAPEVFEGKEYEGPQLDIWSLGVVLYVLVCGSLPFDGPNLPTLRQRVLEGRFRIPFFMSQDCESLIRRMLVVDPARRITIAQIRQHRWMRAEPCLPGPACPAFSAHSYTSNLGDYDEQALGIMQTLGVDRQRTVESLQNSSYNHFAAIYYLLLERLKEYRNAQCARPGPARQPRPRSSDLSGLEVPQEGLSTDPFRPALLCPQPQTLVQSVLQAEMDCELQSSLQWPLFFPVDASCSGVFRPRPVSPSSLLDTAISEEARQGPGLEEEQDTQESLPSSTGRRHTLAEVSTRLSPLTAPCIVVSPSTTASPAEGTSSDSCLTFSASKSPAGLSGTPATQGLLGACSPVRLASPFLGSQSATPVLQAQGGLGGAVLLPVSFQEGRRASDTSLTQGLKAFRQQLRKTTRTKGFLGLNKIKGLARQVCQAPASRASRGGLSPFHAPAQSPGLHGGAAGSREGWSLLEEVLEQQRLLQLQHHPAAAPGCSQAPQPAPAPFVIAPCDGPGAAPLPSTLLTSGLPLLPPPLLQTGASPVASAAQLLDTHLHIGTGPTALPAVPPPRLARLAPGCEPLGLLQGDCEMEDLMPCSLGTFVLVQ

STK16 = STK16 (Homo sapiens, UniProt O75716); details: 1 µM; binder
ULK1 = ULK1 (Homo sapiens, UniProt O75385); details: 1 µM; binder

## CNc1ncc2cc(-c3ccc(-c4cccc(C)n4)cc3Cl)c(=O)n(C[C@H]3OC[C@H](N)CO3)c2n1 [compound 6, G-5555]
AAK1
  Percent Control: 100%
ABL1(Q252H); nonphosphorylated
  Percent Control: 75%
ABL1(Q252H); phosphorylated
  Percent Control: 100%
ALK
  Percent Control: 84%
ARK5
  Percent Control: 24%
BMPR1B
  Percent Control: 96%
CAMKK2
  Percent Control: 100%
CDC2L2
  Percent Control: 100%
CDK8
  Percent Control: 100%
DRAK1
  Percent Control: 100%
EGFR(T790M)
  Percent Control: 85%
EIF2AK1
  Percent Control: 100%
FGFR4
  Percent Control: 100%
INSR
  Percent Control: 97%
KIT(V559D)
  Percent Control: 100%
KIT(V559D,T670I)
  Percent Control: 100%
LATS2
  Percent Control: 8%
MARK1
  Percent Control: 68%
MRCKB
  Percent Control: 5.3%
MTOR
  Percent Control: 83%
MYLK2
  Percent Control: 81%
NEK4
  Percent Control: 100%
PAK3
  Percent Control: 100%
PDGFRB
  Percent Control: 84%
PIK3CA(Q546K)
  Percent Control: 100%
PIKFYVE
  Percent Control: 100%
PIP5K1C
  Percent Control: 100%
PRKD1
  Percent Control: 17%
SIK1
  Percent Control: 0.6%
STK16
  Percent Control: 69%
ULK1
  Percent Control: 85%
